Read-outs that look alike come from different tables or passages of the source.
Legend:
Type in all cases: cell-based
mouse PPAR α = target: T1, mouse PPAR α (Mus musculus, UniProt P23204); assay: PPAR α transactivation (GAL4 chimeric receptor luciferase reporter) assay
T1 construct: expressed in transfected cells; host or cells: HEK293T
T1 sequence (P23204 239-466 limits assumed): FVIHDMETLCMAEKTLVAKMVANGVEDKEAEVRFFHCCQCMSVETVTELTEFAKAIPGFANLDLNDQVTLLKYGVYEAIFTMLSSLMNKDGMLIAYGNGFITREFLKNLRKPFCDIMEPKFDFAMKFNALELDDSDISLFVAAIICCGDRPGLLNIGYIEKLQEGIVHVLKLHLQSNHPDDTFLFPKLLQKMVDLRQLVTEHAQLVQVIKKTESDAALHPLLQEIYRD
Source text: (§1) Chimeric receptors were constructed in which the yeast transcription factor GAL4 DNA binding domain was fused to the ligand binding domain of either mouse PPARγ, mouse PPAR δ or mouse PPAR α in order to assess the ability of the compounds of the present invention to activate gene expression in a PPAR-dependent manner. The chimeric receptor expression plasmids (GAL4-mPPARγ, GAL4-mPPAR δ and GAL4-PPAR α) and the reporter plasmid containing 5×GAL4 binding site (pFR-Luc, obtained from Stratagene) were transfected into HEK293T cells using the Lipofectamine 2000 reagent (Invitrogen), according to the manufacturers instructions. Six hours after transfection, the culture medium was renewed and the cells were incubated for 20 hours in presence of either 1) DMSO (vehicle), 2) a compound of the invention or 3) a reference compound for comparison. Rosiglitazone (obtained from WDF Pharma) was used as a reference compound for the PPARγ assay; GW501516 (prepared as described in Sznaidman et al. Bioorg. Med. Chem. Lett. (2003) 13:1517-1521) was used as a reference compound for the PPAR δ assay and GW7647 (obtained from Sigma) was used as a reference compound for the PPAR α assay. Luciferase activity was measured as a reporter of gene expression. Luciferase activity on the cell lysates using the Steady-Glo reagent was measured according to the manufacturers instructions.

mouse PPAR δ = target: T2, mouse PPAR δ (Mus musculus, UniProt P35396); assay: PPAR δ transactivation (GAL4 chimeric receptor luciferase reporter) assay; settings: GAL4-mPPAR δ chimeric receptor, pFR-Luc reporter, HEK293T cells, 20 hours incubation
T2 construct: expressed in transfected cells; host or cells: HEK293T
T2 sequence (P35396 210-438 limits assumed): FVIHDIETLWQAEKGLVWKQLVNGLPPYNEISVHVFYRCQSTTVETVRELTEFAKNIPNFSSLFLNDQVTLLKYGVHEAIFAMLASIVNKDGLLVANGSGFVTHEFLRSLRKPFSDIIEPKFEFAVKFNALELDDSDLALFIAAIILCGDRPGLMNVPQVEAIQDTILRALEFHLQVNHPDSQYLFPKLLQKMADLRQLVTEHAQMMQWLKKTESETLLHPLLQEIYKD
Source text: as §1

mouse PPARγ = target: T3, mouse PPARγ (Mus musculus, UniProt P37238); assay: PPARγ transactivation (GAL4 chimeric receptor luciferase reporter) assay; settings: GAL4-mPPARγ chimeric receptor, pFR-Luc reporter, HEK293T cells, 20 hours incubation
T3 construct: expressed in transfected cells; host or cells: HEK293T
T3 sequence (P37238 238-503 limits assumed): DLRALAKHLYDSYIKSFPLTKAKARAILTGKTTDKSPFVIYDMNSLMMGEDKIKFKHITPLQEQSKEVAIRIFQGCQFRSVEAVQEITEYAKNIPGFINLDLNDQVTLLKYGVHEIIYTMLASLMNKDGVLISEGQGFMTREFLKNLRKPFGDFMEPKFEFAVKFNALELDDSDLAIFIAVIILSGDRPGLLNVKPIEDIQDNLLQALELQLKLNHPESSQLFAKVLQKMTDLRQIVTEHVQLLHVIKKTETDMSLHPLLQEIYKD
Source text: as §1

[1] = pFR-Luc reporter, HEK293T cells, 20 hours incubation
[2] = read-out: Gene Activation Assay: EC50 (≦10 μM) PPAR alpha, pFR-Luc reporter, HEK293T cells, 20 hours incubation

Row | SMILES | EC50 (mouse PPAR α; [1]) | EC50 (mouse PPAR δ) | EC50 (mouse PPARγ) | EC50 (mouse PPAR α; [2])
1 | CCCc1cc(CC(=O)O)ccc1OCCCOc1ccc(Cl)cc1-n1nc2ccccc2n1 [Compound 600, {4-[3-(2-Benzotriazol-2-yl-4-chloro-phenoxy)-propoxy]-3-propyl-phenyl}-acetic acid] | ≤ 10 µM | ≤ 10 µM | ≤ 10 µM | –
2 | Cc1cccc2nn(-c3cc(Cl)ccc3OCCCOc3ccc(CC(=O)O)cc3)nc12 [Compound 1600, (4-{3-[4-Chloro-2-(4-methyl-benzotriazol-2-yl)-phenoxy]-propoxy}-phenyl)-acetic acid] | ≤ 10 µM | ≤ 10 µM | ≤ 10 µM | –
3 | O=C(O)Cn1ncc2cc(OCCCOc3ccc(Cl)cc3-n3nc4ccccc4n3)ccc21 [Compound 1700, {5-[3-(2-Benzotriazol-2-yl-4-chloro-phenoxy)-propoxy]-indazol-1-yl}-acetic acid] | > 30 µM | ≤ 10 µM | ≤ 10 µM | –
4 | CCCc1cc(CC(=O)O)ccc1OCCOc1ccc(Cl)cc1-n1nc2ccccc2n1 [Compound 900, {4-[2-(2-Benzotriazol-2-yl-4-chloro-phenoxy)-ethoxy]-3-propyl-phenyl}-acetic acid] | > 30 µM | ≤ 10 µM | ≤ 10 µM | –
5 | COc1cccc(C#Cc2cc(Cl)ccc2OCCCOc2ccc(CC(=O)O)cc2)c1 [Compound 1400, (4-{3-[4-Chloro-2-(3-methoxy-phenylethynyl)-phenoxy]-propoxy}-phenyl)-acetic acid] | – | ≤ 10 µM | ≤ 10 µM | > 10 µM
6 | O=C(O)Cc1ccc(OCCCOc2ccc(Cl)cc2-n2nc3c(n2)CCCC3)cc1 [Compound 1200, (4-{3-[4-Chloro-2-(4,5,6,7-tetrahydro-benzotriazol-2-yl)-phenoxy]-propoxy}-phenyl)-acetic acid] | ≤ 10 µM | ≤ 10 µM | ≤ 10 µM | –
7 | O=C(O)Cn1ccc2cc(OCCOc3ccc(Cl)cc3-n3nc4ccccc4n3)ccc21 [Compound 1900, {5-[2-(2-Benzotriazol-2-yl-4-chloro-phenoxy)-ethoxy]-indol-1-yl}-acetic acid] | – | ≤ 10 µM | ≤ 10 µM | > 10 µM
8 | O=C(O)Cc1ccc(OCCCOc2ccc(Cl)cc2C#Cc2ccccn2)cc1 [Compound 1500, {4-[3-(4-Chloro-2-pyridin-2-ylethynyl-phenoxy)-propoxy]-phenyl}-acetic acid] | – | ≤ 10 µM | ≤ 10 µM | > 10 µM
9 | Cc1cc(SCCOc2ccc(Cl)cc2-n2nc3ccccc3n2)ccc1OCC(=O)O [Compound 400, {4-[2-(2-Benzotriazol-2-yl-4-chloro-phenoxy)-ethylsulfanyl]-2-methyl-phenoxy}-acetic acid] | – | ≤ 10 µM | ≤ 10 µM | > 10 µM
10 | O=C(O)Cc1ccc(OCCOc2ccc(Cl)cc2-n2nc3ccccc3n2)cc1 [Compound 800, {4-[2-(2-Benzotriazol-2-yl-4-chloro-phenoxy)-ethoxy]-phenyl}-acetic acid] | – | ≤ 10 µM | ≤ 10 µM | > 10 µM
11 | O=C(O)Cc1ccc(OCCCOc2ccc(Cl)cc2C#Cc2ccccc2)cc1 [Compound 1300, {4-[3-(4-Chloro-2-phenylethynyl-phenoxy)-propoxy]-phenyl}-acetic acid] | – | ≤ 10 µM | ≤ 10 µM | > 10 µM
12 | O=C(O)Cn1ccc2cc(OCCCOc3ccc(Cl)cc3-n3nc4ccccc4n3)ccc21 [Compound 1800, {5-[3-(2-Benzotriazol-2-yl-4-chloro-phenoxy)-propoxy]-indol-1-yl}-acetic acid] | – | ≤ 10 µM | ≤ 10 µM | > 10 µM
13 | Cc1cc(SCCCOc2ccc(Br)cc2-c2nc3ccccc3o2)ccc1OCC(=O)O [Compound 300, {4-[3-(2-Benzooxazol-2-yl-4-bromo-phenoxy)-propylsulfanyl]-2-methyl-phenoxy}-acetic acid] | ≤ 10 µM | ≤ 10 µM | ≤ 10 µM | –
14 | O=C(O)Cc1ccc(OCCCOc2ccc(Cl)cc2-n2nc3ccccc3n2)cc1 [Compound 500, {4-[3-(2-Benzotriazol-2-yl-4-chloro-phenoxy)-propoxy]-phenyl}-acetic acid] | ≤ 10 µM | ≤ 10 µM | ≤ 10 µM | –

Source: US7622491B2, “Modulators of PPAR and methods of their preparation” (Metabolex Inc., priority 2004, dated 2009)
